Assay results as given in the NIST ThermoML archive (doi:10.1021/je800224k).

CCn1cc[n+](C)c1.F[P-](F)(F)(F)(F)F [1-ethyl-3-methylimidazolium hexafluorophosphate]
Conditions	mass density [kg/m3]
312.8 K, 10000 kPa, Crystal, Bellows volumetry	1562
312.8 K, 20000 kPa, Crystal, Bellows volumetry	1565
312.8 K, 30000 kPa, Crystal, Bellows volumetry	1569
312.8 K, 40000 kPa, Crystal, Bellows volumetry	1572
312.8 K, 50000 kPa, Crystal, Bellows volumetry	1576
312.8 K, 60000 kPa, Crystal, Bellows volumetry	1579
312.8 K, 70000 kPa, Crystal, Bellows volumetry	1582
312.8 K, 80000 kPa, Crystal, Bellows volumetry	1585
312.8 K, 90000 kPa, Crystal, Bellows volumetry	1588
312.8 K, 100000 kPa, Crystal, Bellows volumetry	1591
312.8 K, 110000 kPa, Crystal, Bellows volumetry	1594
312.8 K, 120000 kPa, Crystal, Bellows volumetry	1597
312.8 K, 130000 kPa, Crystal, Bellows volumetry	1600
312.8 K, 140000 kPa, Crystal, Bellows volumetry	1603
312.8 K, 150000 kPa, Crystal, Bellows volumetry	1606
312.8 K, 160000 kPa, Crystal, Bellows volumetry	1609
312.8 K, 170000 kPa, Crystal, Bellows volumetry	1612
312.8 K, 180000 kPa, Crystal, Bellows volumetry	1615
312.8 K, 190000 kPa, Crystal, Bellows volumetry	1617
312.8 K, 200000 kPa, Crystal, Bellows volumetry	1620
332.7 K, 10000 kPa, Crystal, Bellows volumetry	1546
332.7 K, 20000 kPa, Crystal, Bellows volumetry	1550
332.7 K, 30000 kPa, Crystal, Bellows volumetry	1554
332.7 K, 40000 kPa, Crystal, Bellows volumetry	1557
332.7 K, 50000 kPa, Crystal, Bellows volumetry	1561
332.7 K, 60000 kPa, Crystal, Bellows volumetry	1564
332.7 K, 70000 kPa, Crystal, Bellows volumetry	1567
332.7 K, 80000 kPa, Crystal, Bellows volumetry	1571
332.7 K, 90000 kPa, Crystal, Bellows volumetry	1574
332.7 K, 100000 kPa, Crystal, Bellows volumetry	1577
332.7 K, 110000 kPa, Crystal, Bellows volumetry	1581
332.7 K, 120000 kPa, Crystal, Bellows volumetry	1584
332.7 K, 130000 kPa, Crystal, Bellows volumetry	1587
332.7 K, 140000 kPa, Crystal, Bellows volumetry	1590
332.7 K, 150000 kPa, Crystal, Bellows volumetry	1593
332.7 K, 160000 kPa, Crystal, Bellows volumetry	1596
332.7 K, 170000 kPa, Crystal, Bellows volumetry	1599
332.7 K, 180000 kPa, Crystal, Bellows volumetry	1602
332.7 K, 190000 kPa, Crystal, Bellows volumetry	1605
332.7 K, 200000 kPa, Crystal, Bellows volumetry	1608
352.7 K, 10000 kPa, Liquid, Bellows volumetry	1428
352.7 K, 20000 kPa, Liquid, Bellows volumetry	1434
352.7 K, 30000 kPa, Liquid, Bellows volumetry	1440
352.7 K, 40000 kPa, Liquid, Bellows volumetry	1446
352.7 K, 50000 kPa, Liquid, Bellows volumetry	1451
352.7 K, 60000 kPa, Liquid, Bellows volumetry	1456
352.7 K, 70000 kPa, Liquid, Bellows volumetry	1461
352.7 K, 80000 kPa, Liquid, Bellows volumetry	1466
352.7 K, 90000 kPa, Liquid, Bellows volumetry	1471
352.7 K, 100000 kPa, Crystal, Bellows volumetry	1562
352.7 K, 110000 kPa, Crystal, Bellows volumetry	1566
352.7 K, 120000 kPa, Crystal, Bellows volumetry	1570
352.7 K, 130000 kPa, Crystal, Bellows volumetry	1573
352.7 K, 140000 kPa, Crystal, Bellows volumetry	1576
352.7 K, 150000 kPa, Crystal, Bellows volumetry	1580
352.7 K, 160000 kPa, Crystal, Bellows volumetry	1583
352.7 K, 170000 kPa, Crystal, Bellows volumetry	1586
352.7 K, 180000 kPa, Crystal, Bellows volumetry	1589
352.7 K, 190000 kPa, Crystal, Bellows volumetry	1592
352.7 K, 200000 kPa, Crystal, Bellows volumetry	1595
353.15 K, 101.33 kPa, Liquid, Vibrating tube method	1421.8
372.8 K, 10000 kPa, Liquid, Bellows volumetry	1410
372.8 K, 20000 kPa, Liquid, Bellows volumetry	1416
372.8 K, 30000 kPa, Liquid, Bellows volumetry	1423
372.8 K, 40000 kPa, Liquid, Bellows volumetry	1428
372.8 K, 50000 kPa, Liquid, Bellows volumetry	1434
372.8 K, 60000 kPa, Liquid, Bellows volumetry	1439
372.8 K, 70000 kPa, Liquid, Bellows volumetry	1445
372.8 K, 80000 kPa, Liquid, Bellows volumetry	1450
372.8 K, 90000 kPa, Liquid, Bellows volumetry	1455
372.8 K, 100000 kPa, Liquid, Bellows volumetry	1460
372.8 K, 110000 kPa, Liquid, Bellows volumetry	1465
372.8 K, 120000 kPa, Liquid, Bellows volumetry	1470
372.8 K, 130000 kPa, Liquid, Bellows volumetry	1474
372.8 K, 140000 kPa, Liquid, Bellows volumetry	1479
372.8 K, 150000 kPa, Liquid, Bellows volumetry	1483
372.8 K, 160000 kPa, Liquid, Bellows volumetry	1488
372.8 K, 170000 kPa, Liquid, Bellows volumetry	1492
372.8 K, 180000 kPa, Liquid, Bellows volumetry	1497
372.8 K, 190000 kPa, Liquid, Bellows volumetry	1501
372.8 K, 200000 kPa, Liquid, Bellows volumetry	1505
373.15 K, 101.33 kPa, Liquid, Vibrating tube method	1404.9
392.9 K, 10000 kPa, Liquid, Bellows volumetry	1393
392.9 K, 20000 kPa, Liquid, Bellows volumetry	1400
392.9 K, 30000 kPa, Liquid, Bellows volumetry	1406
392.9 K, 40000 kPa, Liquid, Bellows volumetry	1412
392.9 K, 50000 kPa, Liquid, Bellows volumetry	1418
392.9 K, 60000 kPa, Liquid, Bellows volumetry	1424
392.9 K, 70000 kPa, Liquid, Bellows volumetry	1429
392.9 K, 80000 kPa, Liquid, Bellows volumetry	1435
392.9 K, 90000 kPa, Liquid, Bellows volumetry	1440
392.9 K, 100000 kPa, Liquid, Bellows volumetry	1445
392.9 K, 110000 kPa, Liquid, Bellows volumetry	1450
392.9 K, 120000 kPa, Liquid, Bellows volumetry	1455
392.9 K, 130000 kPa, Liquid, Bellows volumetry	1460
392.9 K, 140000 kPa, Liquid, Bellows volumetry	1464
392.9 K, 150000 kPa, Liquid, Bellows volumetry	1469
392.9 K, 160000 kPa, Liquid, Bellows volumetry	1474
392.9 K, 170000 kPa, Liquid, Bellows volumetry	1478
392.9 K, 180000 kPa, Liquid, Bellows volumetry	1483
392.9 K, 190000 kPa, Liquid, Bellows volumetry	1487
392.9 K, 200000 kPa, Liquid, Bellows volumetry	1491
412.9 K, 10000 kPa, Liquid, Bellows volumetry	1377
412.9 K, 20000 kPa, Liquid, Bellows volumetry	1384
412.9 K, 30000 kPa, Liquid, Bellows volumetry	1390
412.9 K, 40000 kPa, Liquid, Bellows volumetry	1397
412.9 K, 50000 kPa, Liquid, Bellows volumetry	1403
412.9 K, 60000 kPa, Liquid, Bellows volumetry	1408
412.9 K, 70000 kPa, Liquid, Bellows volumetry	1414
412.9 K, 80000 kPa, Liquid, Bellows volumetry	1420
412.9 K, 90000 kPa, Liquid, Bellows volumetry	1425
412.9 K, 100000 kPa, Liquid, Bellows volumetry	1431
412.9 K, 110000 kPa, Liquid, Bellows volumetry	1436
412.9 K, 120000 kPa, Liquid, Bellows volumetry	1441
412.9 K, 130000 kPa, Liquid, Bellows volumetry	1446
412.9 K, 140000 kPa, Liquid, Bellows volumetry	1451
412.9 K, 150000 kPa, Liquid, Bellows volumetry	1456
412.9 K, 160000 kPa, Liquid, Bellows volumetry	1460
412.9 K, 170000 kPa, Liquid, Bellows volumetry	1465
412.9 K, 180000 kPa, Liquid, Bellows volumetry	1469
412.9 K, 190000 kPa, Liquid, Bellows volumetry	1474
412.9 K, 200000 kPa, Liquid, Bellows volumetry	1478
432.6 K, 10000 kPa, Liquid, Bellows volumetry	1360
432.6 K, 20000 kPa, Liquid, Bellows volumetry	1367
432.6 K, 30000 kPa, Liquid, Bellows volumetry	1374
432.6 K, 40000 kPa, Liquid, Bellows volumetry	1381
432.6 K, 50000 kPa, Liquid, Bellows volumetry	1387
432.6 K, 60000 kPa, Liquid, Bellows volumetry	1393
432.6 K, 70000 kPa, Liquid, Bellows volumetry	1399
432.6 K, 80000 kPa, Liquid, Bellows volumetry	1405
432.6 K, 90000 kPa, Liquid, Bellows volumetry	1411
432.6 K, 100000 kPa, Liquid, Bellows volumetry	1417
432.6 K, 110000 kPa, Liquid, Bellows volumetry	1422
432.6 K, 120000 kPa, Liquid, Bellows volumetry	1427
432.6 K, 130000 kPa, Liquid, Bellows volumetry	1432
432.6 K, 140000 kPa, Liquid, Bellows volumetry	1437
432.6 K, 150000 kPa, Liquid, Bellows volumetry	1442
432.6 K, 160000 kPa, Liquid, Bellows volumetry	1447
432.6 K, 170000 kPa, Liquid, Bellows volumetry	1451
432.6 K, 180000 kPa, Liquid, Bellows volumetry	1456
432.6 K, 190000 kPa, Liquid, Bellows volumetry	1461
432.6 K, 200000 kPa, Liquid, Bellows volumetry	1465
452.5 K, 10000 kPa, Liquid, Bellows volumetry	1344
452.5 K, 20000 kPa, Liquid, Bellows volumetry	1351
452.5 K, 30000 kPa, Liquid, Bellows volumetry	1359
452.5 K, 40000 kPa, Liquid, Bellows volumetry	1366
452.5 K, 50000 kPa, Liquid, Bellows volumetry	1372
452.5 K, 60000 kPa, Liquid, Bellows volumetry	1379
452.5 K, 70000 kPa, Liquid, Bellows volumetry	1385
452.5 K, 80000 kPa, Liquid, Bellows volumetry	1391
452.5 K, 90000 kPa, Liquid, Bellows volumetry	1397
452.5 K, 100000 kPa, Liquid, Bellows volumetry	1402
452.5 K, 110000 kPa, Liquid, Bellows volumetry	1408
452.5 K, 120000 kPa, Liquid, Bellows volumetry	1414
452.5 K, 130000 kPa, Liquid, Bellows volumetry	1419
452.5 K, 140000 kPa, Liquid, Bellows volumetry	1423
452.5 K, 150000 kPa, Liquid, Bellows volumetry	1429
452.5 K, 160000 kPa, Liquid, Bellows volumetry	1434
452.5 K, 170000 kPa, Liquid, Bellows volumetry	1439
452.5 K, 180000 kPa, Liquid, Bellows volumetry	1444
452.5 K, 190000 kPa, Liquid, Bellows volumetry	1448
452.5 K, 200000 kPa, Liquid, Bellows volumetry	1453
472.4 K, 10000 kPa, Liquid, Bellows volumetry	1327
472.4 K, 20000 kPa, Liquid, Bellows volumetry	1336
472.4 K, 30000 kPa, Liquid, Bellows volumetry	1344
472.4 K, 40000 kPa, Liquid, Bellows volumetry	1351
472.4 K, 50000 kPa, Liquid, Bellows volumetry	1358
472.4 K, 60000 kPa, Liquid, Bellows volumetry	1364
472.4 K, 70000 kPa, Liquid, Bellows volumetry	1371
472.4 K, 80000 kPa, Liquid, Bellows volumetry	1377
472.4 K, 90000 kPa, Liquid, Bellows volumetry	1383
472.4 K, 100000 kPa, Liquid, Bellows volumetry	1389
472.4 K, 110000 kPa, Liquid, Bellows volumetry	1395
472.4 K, 120000 kPa, Liquid, Bellows volumetry	1400
472.4 K, 130000 kPa, Liquid, Bellows volumetry	1405
472.4 K, 140000 kPa, Liquid, Bellows volumetry	1411
472.4 K, 150000 kPa, Liquid, Bellows volumetry	1416
472.4 K, 160000 kPa, Liquid, Bellows volumetry	1421
472.4 K, 170000 kPa, Liquid, Bellows volumetry	1426
472.4 K, 180000 kPa, Liquid, Bellows volumetry	1431
472.4 K, 190000 kPa, Liquid, Bellows volumetry	1436
472.4 K, 200000 kPa, Liquid, Bellows volumetry	1440
